# Assays:
# [1] = system: Sprague-Dawley rats; assay: Skin pain sensation threshold value (von Frey filaments) after repeated administration of reserpine; assay type: in vivo, rat; conditions: for time after reserpine final administration until which skin pain sensation threshold value was statistically significantly low vs solvent group: reserpine 1 mg/kg s.c. once a day for 3 days
# Procedure: Measurement of muscle pressure pain threshold value was carried out in accordance with the method of Schafers et al. (Schafers M. et al., Pain, 104, 579-588, 2003). A pressure stimulus of gradually increasing to 250 g at the maximum was added to the rat right hind leg gastrocnemius muscle. […] The measurement was carried out 3 times at each point of time of the measurement, and the average was used as the measurement value. Measurement of the skin pain sensation threshold value was carried out in accordance with the method of Chaplan et al. (Chaplan et al., J. Neurosci. Methods, 53, 55-63, 1994). This was measured using a series of von Frey filaments having different diameters which may add a constant pressure. […] The von Frey filament was applied using the up and down method. That is, by firstly applying a filament of middle diameter, a filament having one rank smaller diameter was applied when the withdrawal reaction was observed or a filament having one rank larger diameter was applied when the withdrawal reaction was not observed. The skin pain sensation threshold value at each point of time of the measurement was calculated as a hind paw withdrawal reaction threshold value (g) using the calculation formula reported by Chaplan et al. (Chaplan et al., described above). Influences of reserpine upon the muscle pressure pain threshold value and skin pain sensation threshold value were examined by the following protocol. A total of 24 animals for each of male and female rats were used. After measuring muscle pressure pain threshold value and skin pain sensation threshold value before the reserpine treatment (base line), they were divided based on the reserpine administration doses into a solvent (0.5% acetic acid aqueous solution) group, a reserpine 0.1 mg/kg group, a 0.3 mg/kg group and a 1 mg/kg group (the number of animals per one group was 6). The solvent or reserpine was subcutaneously administered on the back of the rats of each group once a day for 3 days. All of the administration volume of the solvent or reserpine was set to 1 ml per 1 kg body weight of each animal. After final administration of the solvent or reserpine, the muscle pressure pain threshold value and skin pain sensation threshold value of each rat were measured 1, 3, 5, 7, 10, 14 and 21 days thereafter.
# All of the measured values were expressed as average value±standard error. Statistical significance test of the measured values between the reserpine administration groups and the solvent administration group at each point of time was carried out by a two-way analysis of variance and the Bonferroni method. Probability value (P) of less than 5% was judged as statistically significant (P<0.05 was expressed as * in the graphs).
# [2] = system: dopamine, norepinephrine and serotonin in the spinal cord, thalamus and prefrontal cortex; assay: Amounts of dopamine, norepinephrine and serotonin in spinal cord, thalamus and prefrontal cortex after repeated administration of reserpine (HPLC-ECD); assay type: in vivo, rat
# Procedure: Male Sprague-Dawley rats (7 weeks old, Japan SLC, Hamamatsu, Japan) were used as the animal.
# A total of 96 rats were divided into 8 test schedules (collection of samples before administration and 1, 3, 5, 7, 10, 14 or 21 days after the final administration) and further divided each of them into a vehicle (0.5% acetic acid aqueous solution) administration group, a reserpine 0.1 mg/kg administration group, a 0.3 mg/kg administration group and a 1 mg/kg administration group, to 3 rats per group. As shown in Example 1, the vehicle or 0.1, 0.3 or 1 mg/kg of reserpine was repeatedly administered to each rat once a day for 3 days, and the brain and spinal cord were quickly collected 1, 3, 5, 7, 10, 14 or 21 days after the final administration. The thalamus and prefrontal cortex were separated from the brain on an ice-cold dish.
# Regarding the sampling before administration, samples were collected before beginning of the repeated administration of vehicle or reserpine. The collected samples were quickly frozen and stored at −80° C. until their use in the measurements. On the day of the measurement, tissues of respective samples were subjected to wet weight measurement, homogenized in 0.2 M perchloric acid/0.1 mM EDTA-2Na solution using an ultrasonic homogenizer. After centrifugation at 15,000 g and at 4° C. for 15 minutes, the supernatant was adjusted to pH 3.5 using sodium acetate and filtered using a filter. Amounts of dopamine, norepinephrine and serotonin in these samples were measured using a high performance liquid chromatography (column: SC-50DS 30, 150 mm, Eicom Co., Ltd., Kyoto, Japan, mobile phase composition: 0.1 M sodium acetate buffer, 0.1 M citrate buffer, pH 3.5, 5 mg/l EDTA-2Na, 190 mg/l sodium octane sulfonic acid, 17% methanol) and an electrochemical detector (ECD-300, Eicom Co., Ltd., Kyoto, Japan). The measurement was carried out under conditions of flow rate 0.5 ml/min, applied voltage 750 mV and 25° C. Amounts of dopamine, norepinephrine and serotonin in the samples were quantified by comparing sample peak areas of respective standards measured on the same day of the sample measurement. All of the measured values were expressed as average value±standard error in the graphs, and unit of the measured values was set to ng/g tissue wet weight.
# Statistical difference of the measured values between the reserpine administration group and the vehicle administration group in each test schedule was carried out by the two-way analysis of variance and the Bonferroni method. Probability value (P) of less than 5% was judged as statistically significant (P<0.05 was expressed as * in the graphs). In addition, average values of respective groups at each point of time were expressed as percentages of the average values of corresponding vehicle administration groups.
# [3] = system: rats; conditions: single intraperitoneal administration of reserpine in rats; Non-patent Reference 13; cited from earlier work
# [4] = reserpine 0.1 mg/kg s.c. once a day for 3 days, 1 day after final administration
# [5] = reserpine 0.3 mg/kg s.c. once a day for 3 days, 1 day after final administration
# [6] = reserpine 1 mg/kg s.c. once a day for 3 days, 1 day after final administration
# [7] = reserpine 1 mg/kg s.c. once a day for 3 days, after 21 days
smiles,measurement,setting,value
COC(=O)[C@H]1[C@H]2C[C@@H]3c4[nH]c5cc(OC)ccc5c4CCN3C[C@H]2C[C@@H](OC(=O)c2cc(OC)c(OC)c(OC)c2)[C@@H]1OC [reserpine],time after reserpine final administration until which skin pain sensation threshold value was statistically significantly low vs solvent group,[1]; female rats,14 days
same,skin pain sensation threshold value,"[1]; male and female rats, reserpine 0.1, 0.3, 1 mg/kg s.c. once a day for 3 days, two-way analysis of variance vs solvent",significantly reduced
same,time after reserpine final administration until which skin pain sensation threshold value was statistically significantly low vs solvent group,[1]; male rats,21 days
same,skin pain sensation threshold value,"[1]; reserpine 1 mg/kg group, s.c. once a day for 3 days",markedly reduced
same,"amount of dopamine in the prefrontal cortex, % of the vehicle administration group",[2]; [4],49.1%
same,"amount of dopamine in the spinal cord, % of the vehicle administration group",[2]; [4],46.4%
same,"amount of dopamine in the thalamus, % of the vehicle administration group",[2]; [4],49.2%
same,"amount of norepinephrine in the prefrontal cortex, % of the vehicle administration group",[2]; [4],10.2%
same,"amount of norepinephrine in the spinal cord, % of the vehicle administration group",[2]; [4],19.1%
same,"amount of norepinephrine in the thalamus, % of the vehicle administration group",[2]; [4],43.8%
same,"amount of serotonin in the prefrontal cortex, % of the vehicle administration group",[2]; [4],42.0%
same,"amount of serotonin in the spinal cord, % of the vehicle administration group",[2]; [4],45.4%
same,"amount of serotonin in the thalamus, % of the vehicle administration group",[2]; [4],28.8%
same,"amount of dopamine in the prefrontal cortex, % of the vehicle administration group",[2]; [5],21.4%
same,"amount of dopamine in the spinal cord, % of the vehicle administration group",[2]; [5],26.3%
same,"amount of dopamine in the thalamus, % of the vehicle administration group",[2]; [5],53.2%
same,"amount of norepinephrine in the prefrontal cortex, % of the vehicle administration group",[2]; [5],0.7%
same,"amount of norepinephrine in the spinal cord, % of the vehicle administration group",[2]; [5],2.6%
same,"amount of norepinephrine in the thalamus, % of the vehicle administration group",[2]; [5],6.1%
same,"amount of serotonin in the prefrontal cortex, % of the vehicle administration group",[2]; [5],15.5%
same,"amount of serotonin in the spinal cord, % of the vehicle administration group",[2]; [5],15.7%
same,"amount of serotonin in the thalamus, % of the vehicle administration group",[2]; [5],14.8%
same,"amount of dopamine in the prefrontal cortex, % of the vehicle administration group",[2]; [6],13.4%
same,"amount of dopamine in the spinal cord, % of the vehicle administration group",[2]; [6],18.4%
same,"amount of dopamine in the thalamus, % of the vehicle administration group",[2]; [6],24.5%
same,"amount of norepinephrine in the prefrontal cortex, % of the vehicle administration group",[2]; [6],0.2%
same,"amount of norepinephrine in the spinal cord, % of the vehicle administration group",[2]; [6],0.6%
same,"amount of norepinephrine in the thalamus, % of the vehicle administration group",[2]; [6],1.2%
same,"amount of serotonin in the prefrontal cortex, % of the vehicle administration group",[2]; [6],4.6%
same,"amount of serotonin in the spinal cord, % of the vehicle administration group",[2]; [6],0.1%
same,"amount of serotonin in the thalamus, % of the vehicle administration group",[2]; [6],8.9%
same,"amount of dopamine in the prefrontal cortex, % of the vehicle administration group",[2]; [7],54.9%
same,"amount of dopamine in the spinal cord, % of the vehicle administration group",[2]; [7],70.1%
same,"amount of dopamine in the thalamus, % of the vehicle administration group",[2]; [7],66.5%
same,"amount of norepinephrine in the prefrontal cortex, % of the vehicle administration group",[2]; [7],29.1%
same,"amount of norepinephrine in the spinal cord, % of the vehicle administration group",[2]; [7],59.4%
same,"amount of norepinephrine in the thalamus, % of the vehicle administration group",[2]; [7],46.0%
same,"amount of serotonin in the prefrontal cortex, % of the vehicle administration group",[2]; [7],47.0%
same,"amount of serotonin in the spinal cord, % of the vehicle administration group",[2]; [7],67.8%
same,"amount of serotonin in the thalamus, % of the vehicle administration group",[2]; [7],60.7%
same,sensitivity to thermal stimulation,[3],causes hypersensitivity to thermal stimulation
same,time within which hypersensitivity to thermal stimulation disappears,[3],≤ 24 h

# Source: patent US8795632B2, “Disease animal model for chronic pain” (Astellas Pharma Inc., priority 2008, dated 2014)
